# From publication PMC5424110, “Preclinical anti-arthritic study and pharmacokinetic properties of a potent histone deacetylase inhibitor MPT0G009” (Cell Death & Disease, 2014)
# Assays:
# [1] = molecular target: T1, recombinant HDAC3 (Homo sapiens, UniProt O15379); assay: Fluorogenic assay kit, recombinant HDAC3 enzyme activity; format: biochemical; details: mean±S.E.M., three replicate experiments; read-out: IC50 (nM) of HDAC isoforms enzyme, HDAC3
# T1 construct: purchased BPS Bioscience Corp. (San Diego, CA, USA)
# Text: (§1) Using kits that contained different recombinant HDAC isoforms, we evaluated the ability of MPT0G009 to inhibit HDAC-mediated deacetylation of lysine residues on the substrates that were provided. […] Fluorogenic HDAC assay kits were used to assess the ability of HDAC inhibitors to inhibit deacetylation of lysine residues on the substrate by recombinant HDAC1, 2, 3, 4, 6 or 8 according to the manufacturer's instructions.
# [2] = molecular target: T2, recombinant HDAC4 (Homo sapiens, UniProt P56524); assay: Fluorogenic assay kit, recombinant HDAC4 enzyme activity; format: biochemical; details: three replicate experiments; read-out: IC50 (nM) of HDAC isoforms enzyme, HDAC4
# T2 construct: purchased BPS Bioscience Corp. (San Diego, CA, USA)
# Text: as §1
# [3] = tested on: RAW264.7 cells; assay: Inflammatory mediator production by LPS-stimulated RAW264.7 cells; format: cell-based, mouse; details: RAW264.7, LPS 25 ng/ml 24 h; MPT0G009 0.1, 1 or 10 μM; SAHA 0.3, 3 or 30 μM
# Procedure: (a) Structure of MPT0G009.
# These supernatants were then assayed for prostaglandin E2 (PGE2), NO and IL-6.
# [4] = tested on: RA-FLS; assay: Cell proliferation assay (SRB), RA-FLS; format: cell-based, human; details: 24 or 48 h
# [5] = tested on: RA-FLS; assay: Cell cycle distribution by propidium iodide flow cytometry; format: cell-based, human; details: RA-FLS 24 h, MPT0G009 1–1000 nM, SAHA 3–3000 nM
# [6] = tested on: histone H3 acetylation and HDAC3 in RA-FLS; assay: Western blot of acetyl histone H3 and HDAC isoforms, RA-FLS; format: cell-based, human
# Procedure: Then, cells were harvested and cell lysates were prepared for western blot analysis of the indicated proteins. (c) RA-FLSs were incubated for 1 h with or without the proteasome inhibitor, MG132 (1 μM). […] Results shown are representative of three independent experiments.
# [7] = tested on: NFATc1 in RAW264.7 cells; assay: NFAT luciferase reporter gene assay, RANKL-induced; format: cell-based, mouse; details: RAW264.7, 5 nM, RANKL 50 ng/ml 24 h
# Procedure: We also assessed the effect of MTP0G009 on the DNA-binding activity of NF-κB and NFATc1, two pivotal transcriptional factors involved in RANKL-induced pathways for promoting osteoclast differentiation.[14], [15] When RAW264.7 cells that had been transiently transfected with reporter plasmids were treated with 5 nM MPT0G009 for 30 min before and during 24-h stimulation with RANKL, MPT0G009 inhibited RANKL-induced NF-κB (Figure 3d) and NFATc1 (Figure 3e) luciferase activity.
# RAW264.7 cells or RA-FLSs were seeded 1 day before transfection. […] For the reporter gene assay, 100 μl of reporter lysis buffer (Promega Corp.) was added, then the cells were scraped off the dishes, centrifuged at 17 000 g for 30 s at 4 °C and the supernatants collected. Aliquots of cell lysates (20 μl) were placed in the wells of an opaque black 96-well microtiter plate, then 40 μl of luciferase substrate (Promega Corp.) was added and the luminescence immediately measured in a microplate luminometer (Beckman Coulter, Krefeld, Germany).
# [8] = tested on: rat AIA model; assay: In vivo adjuvant-induced arthritis (AIA) model
# Procedure: Next, we evaluated the in vivo anti-arthritic effects of MPT0G009 in a rat AIA model. […] The inhibition of synoviocytes proliferation and inflammation by MPT0G009 treatment was also observed (Supplementary Figure 1).
# Figure 5 MPT0G009 inhibits the development of arthritis in an AIA model. […] Subsequently, swelling of both hind paws was photographed. (b) Hind paw volumes in the indicated group of rats were measured using a digital plethysmometer on the indicated day after AIA induction. (c) Arthritis scores on day 21. (d) Serum levels of interleukin (IL)-1β (left panel) and IL-6 (right panel) on day 21 as measured by enzyme-linked immunosorbent assay (ELISA). (e) Top five rows: photomicrographs of ankle joint sections from the different groups stained with hematoxylin and eosin, safranin O, immunohistochemically stained with an anti-acetyl H3 antibody or TRAP stain. Arrows indicate osteoblasts (OB); arrowheads indicate osteoclasts (OC). Bottom panels: micro-CT results (arrows indicate bone erosion). (f) The BMD (in mg/mm^3) and the BMC (in mg) values for the bone tissue of the tarsus were analyzed using CT Analysis Software.
# Five-week-old male Lewis rats were obtained from the National Laboratory Animal Center (Taipei, Taiwan). Complete Freund's adjuvant (CFA) was prepared by suspending heat-killed Mycobacterium butyricum (Difco, Sparks, MD, USA) in mineral oil at 3 mg/ml. CFA-induced arthritis was induced by intradermal injection of 100 μl of the CFA emulsion into the base of the right hind paw on day 0. […] On days 0, 2, 6, 9, 13, 17 and 21, the animals were weighed and both hind paw volumes measured using a digital plethysmometer (Diagnostic & Research Instruments Co. Ltd, Taipei, Taiwan). On day 21, micro-CT of the paws was performed by the Core Facilities Center of the National Research Program for Biopharmaceuticals using an in vivo micro-CT scanner (Skyscan 1176, Bruker Corp., Kontich, Belgium) at 18 μm resolution and 180° scanning with a rotation step of 0.8° per image, 300 ms integration time, 70 keV photon energy and 350 μA current. The reconstructed volumes from micro-CT scans were analyzed by CT Analysis Software (CTAn, Bruker Corp.). Quantification of volumetric BMD and bone volume (BV) was performed in a defined bone area ranging 12 mm from tarsals to the end of the calcaneus. The BMC was described by the product of BV and BMD. On day 21, the rats were killed and specimens from the phalanges and ankle joints stained with hematoxylin–eosin or safranin O for histopathological assessment by the National Laboratory Animal Center. Intensity of arthritis was scored as described previously from 0 to 4.[19] All four legs were scored, so the highest possible arthritic score was 16.
# [9] = tested on: CD51/61 on RAW264.7 cells; assay: Osteoclast-specific marker CD51/61 by flow cytometry; details: RAW264.7, M-CSF/RANKL; 5 nM MPT0G009 or 50 nM SAHA
# Procedure: Subsequently, multinucleate tartrate-resistant acid phosphatase (TRAP)-positive cells were counted.
# Cells were then TRAP stained, and the numbers of TRAP-positive multinuclear cells were counted. […] Images are at × 100 magnification, and the arrows indicate differentiated osteoclasts.
# Cells were then TRAP stained, and the numbers of TRAP-positive multinuclear cells were counted (d) or were incubated with a FITC-conjugated anti-CD51/61 antibody and analyzed by flow cytometry (e).
# After three washes with FACS washing buffer, the fluorescence of the cells was analyzed on a FACScan flow cytometer (BD Biosciences).
# [10] = day 21, ELISA, MPT0G009 25 mg/kg, SAHA 200 mg/kg, indomethacin 1 mg/kg
# [11] = oral daily days 2 to 21, MPT0G009 25 mg/kg, SAHA 200 mg/kg, indomethacin 1 mg/kg, vs vehicle
# T2 sequence (P56524 627-1084 limits assumed): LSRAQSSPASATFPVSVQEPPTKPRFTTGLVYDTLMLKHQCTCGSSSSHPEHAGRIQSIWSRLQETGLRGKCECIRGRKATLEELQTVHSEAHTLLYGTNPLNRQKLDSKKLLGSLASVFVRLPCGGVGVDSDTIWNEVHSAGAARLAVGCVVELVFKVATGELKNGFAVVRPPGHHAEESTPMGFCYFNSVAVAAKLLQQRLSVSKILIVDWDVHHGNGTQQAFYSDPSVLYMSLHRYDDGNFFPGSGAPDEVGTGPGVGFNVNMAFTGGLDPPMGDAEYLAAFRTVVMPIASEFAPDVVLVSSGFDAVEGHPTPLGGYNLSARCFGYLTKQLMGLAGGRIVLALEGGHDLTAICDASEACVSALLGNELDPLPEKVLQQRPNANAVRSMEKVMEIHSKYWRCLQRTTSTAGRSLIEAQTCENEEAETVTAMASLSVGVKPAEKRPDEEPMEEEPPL
# T1 sequence (O15379 whole entry, canonical isoform): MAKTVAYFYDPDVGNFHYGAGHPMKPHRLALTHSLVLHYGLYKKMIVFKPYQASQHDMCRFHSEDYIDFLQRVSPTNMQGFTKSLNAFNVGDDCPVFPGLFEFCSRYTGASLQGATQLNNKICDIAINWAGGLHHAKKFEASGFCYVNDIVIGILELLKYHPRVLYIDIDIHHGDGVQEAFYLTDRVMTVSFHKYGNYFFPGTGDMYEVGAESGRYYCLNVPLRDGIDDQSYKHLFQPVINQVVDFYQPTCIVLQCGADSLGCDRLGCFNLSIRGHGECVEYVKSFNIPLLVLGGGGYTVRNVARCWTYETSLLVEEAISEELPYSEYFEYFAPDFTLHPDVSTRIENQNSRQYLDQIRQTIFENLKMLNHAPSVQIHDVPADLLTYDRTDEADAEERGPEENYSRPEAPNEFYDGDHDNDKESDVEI
# T1 sequence (Q9Y618 395-489 partner limits assumed): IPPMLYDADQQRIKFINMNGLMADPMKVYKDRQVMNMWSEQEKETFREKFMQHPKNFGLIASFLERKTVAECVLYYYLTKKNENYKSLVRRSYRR
compound,measurement,setting,value
"COc1ccc(S(=O)(=O)N2CCc3cc(C=CC(=O)NO)ccc32)cc1 [MPT0G009, 3-[1-(4-methoxybenzenesulfonyl)-2,3-dihydro-1H-indol-5-yl]-N-hydroxyacrylamide]",IC50,[1],1.91 ± 0.22 nM
same,IC50,[2],> 10000 nM
same,NO production,[3],inhibited
same,PGE2 production,[3],inhibited
same,anti-proliferative effect,[4],concentration-dependent anti-proliferative effects
same,subG1 peak (cellular apoptosis),[5],did not increase the subG1 peak
same,cell cycle arrest,[5]; all concentrations,G0/G1 phase arrest
same,acetylation of histone H3 (Acetyl-H3),"[6]; 1 μM MPT0G009 or 30 μM SAHA, 6, 12 or 24 h, starting at 12 h",significant hyperacetylation
same,levels of HDAC3,"[6]; 12 or 24 h, 1 μM MPT0G009 or 30 μM SAHA",decreased levels of HDAC3
same,RANKL-induced NFATc1 luciferase activity,[7],inhibited
same,cartilage degradation (safranin O staining of ankle joints),[8]; 25 mg/kg,markedly reduced
same,formation of osteoclasts (TRAP stain),[8]; 25 mg/kg,significantly decreased
same,"leukocyte infiltration, synovitis (hematoxylin and eosin staining)",[8]; 25 mg/kg,significantly reduced
same,levels of acetyl-histone H3 (immunohistochemical staining),[8]; 25 mg/kg,increased levels
same,bone destruction (micro-CT),"[8]; 25 mg/kg, day 21",ameliorated
same,bone mineral content (BMC),"[8]; 25 mg/kg, tarsus, micro-CT",prevented the decrease
same,bone mineral density (BMD),"[8]; 25 mg/kg, tarsus, micro-CT",prevented the decrease
same,serum levels of IL-1β,[8]; [10],significant decreases
same,serum levels of IL-6,[8]; [10],significant decreases
same,arthritis scores,"[8]; day 21, MPT0G009 25 mg/kg, SAHA 200 mg/kg, indomethacin 1 mg/kg, vs vehicle",significant reductions
same,paw swelling,[8]; [11],significant reductions
same,paw volume,[8]; [11],significant reductions
same,expression of the osteoclast-specific marker (CD51/61),[9],significantly inhibited
